Laboratory results from patent US20220033407A1, “N-(pyridin-2-ylsulfonyl)cyclopropanecarboxamide Derivatives and their Use in the Treatment of Disease” (NOVARTIS AG, priority 2018, published 2022).
pEC50: −log10 of the molar value.

Biological target: T1, delF508-CFTR-HRP (Homo sapiens, UniProt P13569, DEL508-508)
T1 construct: expressed in transfected cells
Assay: Measurement of delF508-CFTR-HRP surface expression in CFBE41o- cells (HRP luminescence);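 on DelF508-CFTR-HRP Amax %: percent efficacy relative to a reference CFTR corrector compound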
Type: cell-based
Settings: for Emax: CFBE41o-, read-out: DelF508-CFTR-HRP Amax %; for pEC50: mean of at least two replicates
Text: Measurement of delF508-CFTR-HRP Surface Expression in CFBE41o-Cells
This assay quantifies the cell surface expressions of the mutant CFTR channel using an extracellular HRP tag.
A cellular assay was developed to measure surface expression of horseradish peroxidase (HRP) tagged delF508-CFTR in the human bronchial epithelial immortalized CFBE41o-cell line (Phuan, P. W., et al, (2014) Molecular Pharmacology 86:42-51). Specifically, the HRP sequence was inserted into the fourth extracellular loop of delF508-CFTR and stably expressed in CFBE41o-cells. Cells were seeded in 384 well plate at a density of 5000 cells/well and incubated at 37° C. for 12 to 24 hours in medium (Gibco MEM #11095, 10% FBS, 10 mM HEPES, […], 200 μg/mL G418, 3 μg/mL Puromycin). The delF508-CFTR-HRP expression was induced with 500 ng/mL doxycycline (Sigma D-9891, dissolved in H2O and sterile filtered) in medium and the cells were incubated at 37° C. for 48 h. Old medium was removed and fresh medium was added containing 500 ng/mL doxycycline and unknown test compound at required test concentration in DMSO, not exceeding 0.5% final DMSO concentration. The highest concentration tested was 10 μM with a 10-point concentration response curve using a 3-fold dilution. After addition of compounds, the cells were incubated for 24 h at 37° C. On the final day, cells were washed four times in PBS containing 1 mM MgCl2 and 0.1 mM CaCl2. HRP-Substrate (SuperSignal ELISA Pico, Fisher #37069) 20 μl/well was added and the luminescence signal was determined (Viewlux, Perkin Elmer). Light was emitted upon addition of exogenous HRP-Substrate only when delF508-CFTR-HRP reached the cell surface and the HRP tag was accessible to the HRP-Substrate (note: HRP-Substrate cannot cross the lipid bilayer to reach delF508-CFTR-HRP misfolded within the cell).
The median activity for the lowest concentration of the compounds on each assay plate was calculated and this value was used to normalize the signal for each well on the respective plate. Three replicates at each concentrations for every compound were run to determine one EC50. The median value was determined and used to calculate compound activities as described below. Effective half maximal values (EC50) were calculated for each compound by performing logistic regression on measured dose-response data points using the equation: […]
where “Y” is the observed activity, “Bottom” is the lowest observed value, “Top” is the highest observed value, and the “Hill coefficient” gives the largest absolute value of the slope. The curve fitting is carried out by a curve fitting program implemented at GNF using Matlab (Mathworks). The dose response curves also were used to calculate Fold Change (FC) using the equation: […]
Compound efficacy relative to the reference compound 3-(6-(1-(2,2-difluorobenzo[d][1,3]dioxol-5-yl)cyclopropane-1-carboxamido)-3-methylpyridin-2-yl)benzoic acid was determined using the following formula: […]

T1 sequence (P13569 with tags, fused parts or gaps DEL508-508): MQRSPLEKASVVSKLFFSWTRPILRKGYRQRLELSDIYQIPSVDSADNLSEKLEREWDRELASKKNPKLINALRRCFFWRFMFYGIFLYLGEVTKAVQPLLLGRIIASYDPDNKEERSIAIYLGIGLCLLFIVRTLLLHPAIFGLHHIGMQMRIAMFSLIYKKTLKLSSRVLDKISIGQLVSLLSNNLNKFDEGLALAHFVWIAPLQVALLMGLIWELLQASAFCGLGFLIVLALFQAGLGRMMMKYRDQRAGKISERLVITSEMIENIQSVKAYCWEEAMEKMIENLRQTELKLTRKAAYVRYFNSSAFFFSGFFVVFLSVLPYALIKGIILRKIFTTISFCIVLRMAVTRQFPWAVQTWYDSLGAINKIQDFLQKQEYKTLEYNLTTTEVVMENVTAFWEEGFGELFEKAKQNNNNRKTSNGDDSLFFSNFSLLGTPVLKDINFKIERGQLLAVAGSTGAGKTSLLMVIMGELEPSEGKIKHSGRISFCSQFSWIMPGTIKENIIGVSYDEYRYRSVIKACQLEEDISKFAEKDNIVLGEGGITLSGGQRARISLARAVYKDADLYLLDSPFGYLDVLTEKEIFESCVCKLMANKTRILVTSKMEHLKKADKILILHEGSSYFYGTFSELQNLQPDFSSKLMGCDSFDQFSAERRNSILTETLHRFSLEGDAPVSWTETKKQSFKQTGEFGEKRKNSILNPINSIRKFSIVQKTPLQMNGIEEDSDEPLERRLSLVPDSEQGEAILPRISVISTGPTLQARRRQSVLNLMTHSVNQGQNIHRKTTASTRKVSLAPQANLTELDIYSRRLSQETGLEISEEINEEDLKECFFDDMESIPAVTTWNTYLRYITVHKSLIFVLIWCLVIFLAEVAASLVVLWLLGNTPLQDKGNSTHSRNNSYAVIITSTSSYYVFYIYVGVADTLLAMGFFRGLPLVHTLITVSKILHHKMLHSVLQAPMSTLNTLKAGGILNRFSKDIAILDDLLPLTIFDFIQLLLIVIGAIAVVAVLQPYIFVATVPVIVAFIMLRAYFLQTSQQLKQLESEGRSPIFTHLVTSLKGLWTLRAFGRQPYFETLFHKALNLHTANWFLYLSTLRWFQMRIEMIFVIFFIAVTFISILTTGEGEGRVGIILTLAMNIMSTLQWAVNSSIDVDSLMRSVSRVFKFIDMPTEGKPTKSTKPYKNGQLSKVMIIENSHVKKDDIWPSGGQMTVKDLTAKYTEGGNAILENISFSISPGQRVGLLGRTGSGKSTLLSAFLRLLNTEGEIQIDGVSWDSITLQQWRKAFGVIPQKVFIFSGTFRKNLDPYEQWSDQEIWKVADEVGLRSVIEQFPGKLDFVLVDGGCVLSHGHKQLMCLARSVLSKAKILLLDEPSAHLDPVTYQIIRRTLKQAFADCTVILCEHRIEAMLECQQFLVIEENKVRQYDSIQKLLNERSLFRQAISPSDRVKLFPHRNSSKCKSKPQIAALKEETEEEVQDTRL

Emax	pEC50	DelF508-CFTR-HRP Amax %	Structure (SMILES)
835%	6.12		CC1(C)CCCN(c2ccc(Cl)cc2OC2(C(=O)NS(=O)(=O)c3cccc(N4CC[C@H](O)C4)n3)CC2)C1 [Example 9-4, (S)-1-(5-chloro-2-(3,3-dimethylpiperidin-1-yl)phenoxy)-N-((6-(3-hydroxypyrrolidin-1-yl)pyridin-2-yl)sulfonyl)cyclopropanecarboxamide]
234%	5.81		Cc1ccc(N2CCC(C)(C)CC2)c(OC2(C(=O)NS(=O)(=O)c3cccc(N)n3)CC2)c1 [Example 9-44, N-((6-Aminopyridin-2-yl)sulfonyl)-1-(2-(4,4-dimethylpiperidin-1-yl)-5-methylphenoxy)cyclopropane-1-carboxamide]
477%	6.54		O=C(NS(=O)(=O)c1cccc(N2CC[C@H](O)C2)n1)C1(Oc2cc(Cl)ccc2N2CCCC3(CCCC3)C2)CC1 [Example 9-15, (S)-1-(5-Chloro-2-(7-azaspiro[4.5]decan-7-yl)phenoxy)-N-((6-(3-hydroxypyrrolidin-1-yl)pyridin-2-yl)sulfonyl)cyclopropanecarboxamide]
189%	5.66		CC1(C)CCN(c2ccc(Cl)cc2OC2(C(=O)NS(=O)(=O)c3cccc(N)n3)CC2)CC1 [Example 9-45, N-((6-Aminopyridin-2-yl)sulfonyl)-1-(5-chloro-2-(4,4-dimethylpiperidin-1-yl)phenoxy)cyclopropane-1-carboxamide]
691%	6.02		O=C(NS(=O)(=O)c1cccc(N2CC[C@@H](O)C2)n1)C1(Oc2cc(Cl)ccc2N2CCC3(CC2)CC3)CC1 [Example 9-29, (R)-1-(5-Chloro-2-(6-azaspiro[2.5]octan-6-yl)phenoxy)-N-((6-(3-hydroxypyrrolidin-1-yl)pyridin-2-yl)sulfonyl)cyclopropanecarboxamide]
388%	6.04		O=C(NS(=O)(=O)c1cccc(N2CC[C@@H](O)C2)n1)C1(Oc2cc(Cl)ccc2N2CC3(CCCCC3)C2)CC1 [Example 9-6, (R)-1-(5-Chloro-2-(2-azaspiro[3.5]nonan-2-yl)phenoxy)-N-((6-(3-hydroxypyrrolidin-1-yl)pyridin-2-yl)sulfonyl)cyclopropanecarboxamide]

Second part, the compound before the results:

Structure (SMILES)	Emax	pEC50	DelF508-CFTR-HRP Amax %
Cc1ccc(C2CCC(C)(C)OC2)c(OC2(C(=O)NS(=O)(=O)c3cccc(N4CC[C@H](O)C4)n3)CC2)c1 (single isomer, unassigned) [Example 4-24-1]		5.44	295%
CC1(C)CCN(c2ccc(Cl)cc2OC2(C(=O)NS(=O)(=O)c3cccc(N4CCC(C)(O)C4)n3)CC2)CC1 (single isomer, unassigned) [Example 9-39-2, 1-(5-Chloro-2-(4,4-dimethylpiperidin-1-yl)phenoxy)-N-((6-(3-hydroxy-3-methylpyrrolidin-1-yl)pyridin-2-yl)sulfonyl)cyclopropane-1-carboxamide]		6.08	493.9%
Cc1ccc(C2CC2C(F)(F)F)c(OC2(C(=O)NS(=O)(=O)c3cccc(N)n3)CC2)c1 (single isomer, unassigned) [Example 1-3-2, N-((6-aminopyridin-2-yl)sulfonyl)-1-(5-methyl-2-(2-(trifluoromethyl)cyclopropyl)phenoxy)cyclopropane-1-carboxamide]		5.52	260%
O=C(NS(=O)(=O)c1cccc(N2CCC3(CCCO3)CC2)n1)C1(Oc2cc(Cl)ccc2C2CC3(CCC3)C2)CC1 [Example 7-6, N-((6-(1-oxa-8-azaspiro[4.5]decan-8-yl)pyridin-2-yl)sulfonyl)-1-(5-chloro-2-(spiro[3.3]heptan-2-yl)phenoxy)cyclopropanecarboxamide]	408%	6.07	
Cc1ccc(OC2CCCCC2)c(OC2(C(=O)NS(=O)(=O)c3cccc(N4CC[C@H](O)C4)n3)CC2)c1 [Example 6-3, (S)-1-(2-(Cyclohexyloxy)-5-methylphenoxy)-N-((6-(3-hydroxypyrrolidin-1-yl)pyridin-2-yl)sulfonyl)cyclopropane-1-carboxamide]	507%	5.56	
